From patent publication EP0993454B1, “BENZO(5,6)CYCLOHEPTA(1,2B)PYRIDINE DERIVATIVES USEFUL FOR INHIBITION OF FARNESYL PROTEIN TRANSFERASE” (SCHERING CORPORATION, priority 1997, dated 1998)
pIC50: −log10 of the molar value.

Target: farnesyl protein transferase (Homo sapiens, UniProt P49354+P49356)
Experiment: FPT IC50 (inhibition of farnesyl protein transferase, in vitro enzyme assay)
Assay type: biochemical
Conditions: procedure of WO 95/10516, one collective range stated for the five listed compounds
Experimental: FPT IC50 (inhibition of farnesyl protein transferase, in vitro enzyme assay) and COS Cell IC50 (Cell-Based Assay) were determined following the assay procedures described in WO 95/10516, published April 20, 1995. GGPT IC50 (inhibition of geranylgeranyl protein transferase, in vitro enzyme assay), Cell Mat Assay, and anti-tumor activity (in vivo anti-tumor studies) could be determined by the assay procedures described in WO 95/10516. The disclosure of WO 95/10516 is incorporated herein by reference thereto.

pIC50 | SMILES
7.38 to 8.70 | NC(=O)CN1CCC(CC(=O)N2CCC(C3(O)c4ncc(Br)cc4CCc4cc(Cl)cc(Br)c43)CC2)CC1 (centres unmarked) [Example 3, 4-[2-[4-(3,10-dibromo-8-chloro-6,11-dihydro-11-hydroxy-5H-benzo[5,6]cyclohepta-[1,2-B]pyridin-11-yl)-1-piperidinyl]-2-oxoethyl]-1-piperidineacetamide]
7.38 to 8.70 | O=C(CC1CCNCC1)N1CCC(C2(O)c3ncc(Br)cc3CCc3cc(Cl)cc(Br)c32)CC1 (centres unmarked) [2 Step A]
